Results reported in ChEMBL document CHEMBL1121424, “Orally active cephalosporins and penicillins” (J Med Chem, 1980).
Converted amounts (≈) assume the structure as drawn.

Key:
Enterobacter cloacae = test: Tested for inhibition of visible growth of Enterobacter cloacae; format: functional
Klebsiella aerogenes = test: Tested for inhibition of visible growth of Enterobacter aerogenes; format: functional
Escherichia coli [1] = test: Tested for inhibition of visible growth of Escherichia coli; format: functional
Escherichia coli [2] = test: Tested for the antimicrobial activity against Escherichia coli in mice; format: functional
Mus musculus [3] = test: Tested for the antimicrobial activity against […], benzyl-penicillin sensitive in mice, subcutaneously; format: functional; details: sc
[4] = (§1) Tested for the antimicrobial activity against Salmonella schottmuelleri in mice; format: functional
[5] = as §1; format: functional; remark: listed apart in the source
Streptococcus pneumoniae [6] = test: (§2) Tested for the antimicrobial activity against Streptococcus pneumoniae in mice; format: functional
Streptococcus pneumoniae [7] = test: as §2; format: functional; remark: listed apart in the source
Streptococcus pyogenes [8] = test: (§3) Tested for the antimicrobial activity against Streptococcus pyogenes in mice; format: functional
Streptococcus pyogenes [9] = test: as §3; format: functional; remark: listed apart in the source
Proteus mirabilis = test: Tested for inhibition of visible growth of Proteus mirabilis; format: functional
[10] = Tested for inhibition of visible growth of Salmonella schottmuelleri; format: functional
Staphylococcus aureus [11] = test: Tested for inhibition of visible growth of Staphylococcus aureus, benzyl-penicillin sensitive; format: functional
Streptococcus pyogenes [12] = test: Tested for inhibition of visible growth of Streptococcus pyogenes; format: functional
Enterococcus faecalis = test: Tested for inhibition of visible growth of Streptococcus faecalis; format: functional
Streptococcus pneumoniae [13] = test: Tested for inhibition of visible growth of Streptococcus pneumoniae; format: functional
Klebsiella pneumoniae = test: Tested for inhibition of visible growth of Klebsiella pneumoniae; format: functional
Staphylococcus aureus [14] = test: Tested for inhibition of visible growth of Staphylococcus aureus; format: functional
Mus musculus [15] = organism: Mus musculus; test: Tested for the antimicrobial activity against Staphylococcus aureus, benzyl-penicillin sensitive in mice, perorally; details: po
Escherichia coli [16] = test: Tested for the antimicrobial activity against Escherichia coli in mice perorally; format: functional; details: po
Staphylococcus aureus [17] = test: Tested for the antimicrobial activity against Staphylococcus aureus; format: functional
Staphylococcus aureus [18] = test: Tested for the antimicrobial activity against Staphylococcus aureus, benzyl-penicillin sensitive in mice, perorally; format: functional; details: po
Mus musculus [19] = organism: Mus musculus; test: Tested for the antimicrobial activity against Staphylococcus aureus (M202) in mice, perorally; format: functional; details: po
Mus musculus [20] = test: Tested for the antimicrobial activity against Staphylococcus aureus (M202) in mice, subcutaneously; format: functional; details: sc
Mus musculus [21] = organism: Mus musculus; test: Tested for the antimicrobial activity against Streptococcus pneumoniae (D137) in mice, perorally; format: functional; details: po
Mus musculus [22] = test: Tested for the antimicrobial activity against Streptococcus pneumoniae (D137) in mice, subcutaneously; format: functional; details: sc
Mus musculus [23] = test: Tested for the antimicrobial activity against Streptococcus pneumoniae (D815) in mice, subcutaneously; format: functional; details: sc
Mus musculus [24] = organism: Mus musculus; test: Tested for the antimicrobial activity against Streptococcus pneumoniae (D815) in mice, perorally; format: functional; details: po
Mus musculus [25] = organism: Mus musculus; test: Tested for the antimicrobial activity against Streptococcus pyogenes (ST139) in mice, perorally; format: functional; details: po
Mus musculus [26] = test: Tested for the antimicrobial activity against Streptococcus pyogenes (ST139) in mice, subcutaneously; format: functional; details: sc
Mus musculus [27] = organism: Mus musculus; test: Tested for the antimicrobial activity against Streptococcus pyogenes (St141) in mice, perorally; format: functional; details: po
Mus musculus [28] = test: Tested for the antimicrobial activity against Streptococcus pyogenes (St141) in mice, subcutaneously; format: functional; details: sc
Mus musculus [29] = test: Tested for the antimicrobial activity against Staphylococcus aureus (M240) in mice, subcutaneously; format: functional; details: sc
Pseudomonas aeruginosa = test: Tested for inhibition of visible growth of Pseudomonas aeruginosa; format: functional
Mus musculus [30] = organism: Mus musculus; test: Tested for the antimicrobial activity against Staphylococcus aureus (M240) in mice, perorally; format: functional; details: po
in vivo = details: mouse, po, 43 mg/kg
Description: Tested for the peak time in mice following 43 mg/kg oral dose of cephalosporin

Row | Structure (SMILES) | MIC (Enterobacter cloacae) | MIC (Klebsiella aerogenes) | MIC (Escherichia coli [1]) | MIC (Proteus mirabilis) | MIC [10] | MIC (Staphylococcus aureus [11]) | MIC (Streptococcus pyogenes [12]) | MIC (Enterococcus faecalis) | MIC (Streptococcus pneumoniae [13]) | MIC (Klebsiella pneumoniae) | MIC (Staphylococcus aureus [14]) | MIC (Pseudomonas aeruginosa) | other results
1 | Cn1nnnc1SCC1=C(C(=O)O)N2C(=O)C(NC(=O)[C@H](N)c3ccc4c(c3)OCO4)C2SC1 (stereo partly specified) | 6.2 mg/L (≈ 12.3 µM) | 3.1 mg/L (≈ 6.13 µM) | 3.1 mg/L (≈ 6.13 µM) | 25 mg/L (≈ 49.5 µM) | 0.8 mg/L (≈ 1.58 µM) | 0.2 mg/L (≈ 0.396 µM) | 0.05 mg/L (≈ 0.0989 µM) | 50 mg/L (≈ 98.9 µM) | 0.1 mg/L (≈ 0.198 µM) | 3.1 mg/L (≈ 6.13 µM) | 1.6 mg/L (≈ 3.16 µM) | – | ED50 (Escherichia coli [2]): 2.1 mg/kg; ED50 (Mus musculus [3]): 0.31 mg/kg; ED50 [4]: 16 mg/kg; ED50 [5]: < 3.1 mg/kg; ED50 (Streptococcus pneumoniae [6]): > 10 mg/kg; ED50 (Streptococcus pneumoniae [7]): 0.74 mg/kg; ED50 (Streptococcus pyogenes [8]): 0.37 mg/kg; ED50 (Streptococcus pyogenes [9]): 0.14 mg/kg; ED50 (Mus musculus [15]): > 2 mg/kg
2 | Cc1nnc(SCC2=C(C(=O)O)N3C(=O)C(NC(=O)[C@H](N)c4ccc5c(c4)CCO5)C3SC2)s1 (stereo partly specified) | > 100 mg/L | 25 mg/L (≈ 48.1 µM) | 12.5 mg/L (≈ 24.1 µM) | > 100 mg/L | 6.2 mg/L (≈ 11.9 µM) | 0.8 mg/L (≈ 1.54 µM) | 0.05 mg/L (≈ 0.0962 µM) | 100 mg/L (≈ 192 µM) | ≤ 0.03 mg/L | 6.2 mg/L (≈ 11.9 µM) | 3.1 mg/L (≈ 5.97 µM) | – | ED50 (Escherichia coli [16]): 20 mg/kg; ED50 (Escherichia coli [2]): 9.3 mg/kg; ED50 [4]: 31 mg/kg; ED50 [5]: 23 mg/kg; ED50 (Staphylococcus aureus [17]): 0.88 mg/kg; ED50 (Streptococcus pneumoniae [6]): 1.6 mg/kg; ED50 (Streptococcus pneumoniae [7]): 0.89 mg/kg; ED50 (Streptococcus pyogenes [8]): 0.78 mg/kg; ED50 (Streptococcus pyogenes [9]): 0.44 mg/kg; ED50 (Staphylococcus aureus [18]): 1.8 mg/kg
3 | CC1(C)SC2C(NC(=O)[C@H](N)c3ccc4c(c3)CCO4)C(=O)N2C1C(=O)O (stereo partly specified) | > 100 mg/L | > 100 mg/L | 25 mg/L (≈ 63.9 µM) | 12.5 mg/L (≈ 31.9 µM) | 1.6 mg/L (≈ 4.09 µM) | 0.05 mg/L (≈ 0.128 µM) | ≤ 0.03 mg/L | 3.1 mg/L (≈ 7.92 µM) | ≤ 0.03 mg/L | 6.2 mg/L (≈ 15.8 µM) | 100 mg/L (≈ 255 µM) | > 100 mg/L | ED50 (Mus musculus [19]): 0.41 mg/kg; ED50 (Mus musculus [20]): 0.89 mg/kg; ED50 (Mus musculus [21]): 0.22 mg/kg; ED50 (Mus musculus [22]): 0.14 mg/kg; ED50 (Mus musculus [23]): 0.078 mg/kg; ED50 (Mus musculus [24]): 0.16 mg/kg; ED50 (Mus musculus [25]): 0.084 mg/kg; ED50 (Mus musculus [26]): 0.053 mg/kg; ED50 (Mus musculus [27]): 0.11 mg/kg; ED50 (Mus musculus [28]): 0.07 mg/kg; ED50 (Mus musculus [29]): 0.063 mg/kg; ED50 (Mus musculus [30]): 0.4 mg/kg
4 | CC1(C)SC2C(NC(=O)C(C(=O)O)c3ccc4c(c3)OCO4)C(=O)N2C1C(=O)O (racemic) | 100 mg/L (≈ 237 µM) | 50 mg/L (≈ 118 µM) | 50 mg/L (≈ 118 µM) | 3.1 mg/L (≈ 7.34 µM) | 50 mg/L (≈ 118 µM) | 0.8 mg/L (≈ 1.89 µM) | 0.8 mg/L (≈ 1.89 µM) | > 100 mg/L | 0.2 mg/L (≈ 0.473 µM) | 100 mg/L (≈ 237 µM) | 12.5 mg/L (≈ 29.6 µM) | 3.1 mg/L (≈ 7.34 µM) | –
5 | CC1(C)S[C@@H]2[C@H](NC(=O)[C@H](N)c3ccc(O)cc3)C(=O)N2[C@H]1C(=O)O [AMOXICILLIN] | > 100 mg/L | > 100 mg/L | 6.2 mg/L (≈ 17 µM) | 0.4 mg/L (≈ 1.09 µM) | 0.4 mg/L (≈ 1.09 µM) | 0.1 mg/L (≈ 0.274 µM) | ≤ 0.03 mg/L | 1.6 mg/L (≈ 4.38 µM) | ≤ 0.03 mg/L | 0.8 mg/L (≈ 2.19 µM) | 100 mg/L (≈ 274 µM) | > 100 mg/L | ED50 (Mus musculus [19]): 0.62 mg/kg; ED50 (Mus musculus [20]): 0.62 mg/kg; ED50 (Mus musculus [21]): 0.25 mg/kg; ED50 (Mus musculus [22]): 0.14 mg/kg; ED50 (Mus musculus [23]): 0.05 mg/kg; ED50 (Mus musculus [24]): 0.13 mg/kg; ED50 (Mus musculus [25]): 0.073 mg/kg; ED50 (Mus musculus [26]): 0.063 mg/kg; ED50 (Mus musculus [27]): 0.08 mg/kg; ED50 (Mus musculus [28]): 0.06 mg/kg; ED50 (Mus musculus [29]): 0.074 mg/kg; ED50 (Mus musculus [30]): 0.31 mg/kg
6 | CC1(C)S[C@@H]2[C@H](NC(=O)C(C(=O)O)c3ccccc3)C(=O)N2[C@H]1C(=O)O (stereo partly specified) [CARBENICILLIN] | 6.2 mg/L (≈ 16.4 µM) | 6.2 mg/L (≈ 16.4 µM) | 6.2 mg/L (≈ 16.4 µM) | 0.8 mg/L (≈ 2.11 µM) | 6.2 mg/L (≈ 16.4 µM) | 0.4 mg/L (≈ 1.06 µM) | 0.1 mg/L (≈ 0.264 µM) | > 100 mg/L | 0.4 mg/L (≈ 1.06 µM) | 6.2 mg/L (≈ 16.4 µM) | 25 mg/L (≈ 66.1 µM) | 0.8 mg/L (≈ 2.11 µM) | –
7 | CC1=C(C(=O)O)N2C(=O)[C@@H](NC(=O)[C@H](N)c3ccccc3)[C@H]2SC1 [CEPHALEXIN ANHYDROUS] | 25 mg/L (≈ 72 µM) | 25 mg/L (≈ 72 µM) | 6.2 mg/L (≈ 17.8 µM) | 12.5 mg/L (≈ 36 µM) | 3.1 mg/L (≈ 8.92 µM) | 0.8 mg/L (≈ 2.3 µM) | 0.4 mg/L (≈ 1.15 µM) | ≥ 100 mg/L | 1.6 mg/L (≈ 4.61 µM) | 3.1 mg/L (≈ 8.92 µM) | 3.1 mg/L (≈ 8.92 µM) | – | Tmax (in vivo): 15 min
8 | CC(=O)OCC1=C(C(=O)O)N2C(=O)[C@@H](NC(=O)Cc3cccs3)[C@H]2SC1 [CEPHALOTHIN] | > 100 mg/L | 100 mg/L (≈ 252 µM) | 12.5 mg/L (≈ 31.5 µM) | 12.5 mg/L (≈ 31.5 µM) | 3.1 mg/L (≈ 7.82 µM) | 0.2 mg/L (≈ 0.504 µM) | 0.1 mg/L (≈ 0.252 µM) | 100 mg/L (≈ 252 µM) | 0.1 mg/L (≈ 0.252 µM) | 3.1 mg/L (≈ 7.82 µM) | 0.8 mg/L (≈ 2.02 µM) | – | –
